Each structure is given as a SMILES string.

Data on 32 compounds can be found in patent publication US8916599B2, “1H-benz imidazole-5-carboxamides as anti-inflammatory agents” (Orexo AB, priority 2008, dated 2014).

One experiment has as its target T1, recombinant human mPGES-1 (Homo sapiens, UniProt O14684).
T1 construct: made in house; host or cells: Rosetta E. coli (microsomal/membrane fraction)
T1 sequence (O14684 1-152): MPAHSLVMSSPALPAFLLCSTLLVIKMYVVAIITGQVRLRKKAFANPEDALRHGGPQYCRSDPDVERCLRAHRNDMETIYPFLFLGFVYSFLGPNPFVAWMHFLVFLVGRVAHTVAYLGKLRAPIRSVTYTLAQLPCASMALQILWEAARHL
The experiment in a line: mPGES-1 inhibition test (microsomes, PGH2 substrate, HTRF detection of PGE2). In kind it is biochemical. Conditions: inhibition of mPGES-1 at 1 μM (marked in cell). The gist of the method:
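E. coli microsomal enzyme, 0.1 M KPi pH 7.4 + 2.5 mM GSH; cpd (DMSO) 25 min RT; PGH2 1 min; acidic FeCl2 stop. Dilute 750-fold, HTRF (d2/Eu-cryptate anti-PGE2, overnight 4 °C), 665/620 ratio vs PGE2 standard curve.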
For `COc1cc2c(cc1C(=O)Nc1ccc(Br)cc1)nc(Nc1cccc(Cl)c1C(F)(F)F)n2C` [Example 654], the inhibition (in general, the share of the control response that was lost under treatment) at 1 µM was 99%.
Turning to `COc1cc2c(cc1C(=O)N[C@H]1CC[C@H](C(F)(F)F)CC1)nc(Nc1c(Cl)ccc(Cl)c1F)n2C` [Example 643, 2-(3,6-Dichloro-2-fluoro-phenylamino)-6-methoxy-N-(trans-4-trifluoromethyl-cyclohex-1-yl)-1-methyl-1H-benzimidazole-5-carboxamide], the inhibition at 1 µM is 100%.
Same read-out and setting: the same measure for `COc1cc2[nH]c(Nc3c(Cl)ccc(C)c3F)nc2cc1C(=O)NC1CCC(C)(C)CC1` [Example 626]: 92%; for `COc1cc2c(cc1C(=O)NC1CCCCC1)nc(Nc1c(Cl)ccc(C)c1F)n2C` [Example 651, 2-(6-Chloro-2-fluoro-3-methyl-phenylamino)-6-methoxy-N-cyclohexyl-1-methyl-1H-benzimidazole-5-carboxamide]: 100%.

Still in this experiment, the particulars now being: inhibition of mPGES-1 at 10 μM.
Take `Cc1cc2[nH]c(Nc3c(Cl)cccc3Cl)nc2cc1C(=O)NC1CCC(C)(C)CC1` [Example 123, 2-(2,6-Dichloro-phenylamino)-6-methyl-1H-benzimidazol-5-carboxylic acid (4,4-dimethyl-cyclohexyl)-amide]: the inhibition at 10 µM is 95%.
The same measure, in the same setting: the same measure for `O=C(NC1COc2ccccc2C1)c1ccc2[nH]c(Nc3c(Cl)cccc3Cl)nc2c1` (centres unmarked) [Example 153, 2-(2,6-Dichloro-phenylamino)-1H-benzimidazole-5-carboxylic acid chroman-3-ylamide]: 98%.
For the compound `O=C(Nc1ccc(Br)cc1)c1ccc2[nH]c(Nc3c(Cl)cccc3Cl)nc2c1` [Example 66, 2-(2,6-Dichloro-phenylamino)-1H-benzimidazole-5-carboxylic acid (4-bromo-phenyl)-amide], the inhibition at 10 µM turned out to be 100%.
The same measure, in the same setting: the value for `Cn1c(Nc2cc(C(=O)O)ccc2Cl)nc2cc(C(=O)Nc3ccc(Br)cc3)ccc21` [Example 573, 3-(5-(4-Bromophenylcarbamoyl)-1-methyl-1H-benzimidazol-2-yl-amino)-4-chlorobenzoic acid] was 60%; that for `O=C(NCc1ccncc1)c1ccc2[nH]c(Nc3c(Cl)cccc3Cl)nc2c1` [Example 236, 2-(2,6-Dichloro-phenylamino)-1H-benzimidazole-5-carboxylic acid (pyridin-4-ylmethyl)-amide] was 83%; that for `COc1cc2c(cc1C(=O)NC1CCCCC1)nc(Nc1c(Cl)ccc(Cl)c1F)n2C` [Example 619, 2-(3,6-Dichloro-2-fluoro-phenylamino)-6-methoxy-N-cyclohexyl-1-methyl-1H-benzimidazole-5-carboxamide] was 94%.
On the same count and under the same terms, the value for `Cn1c(Nc2c(Cl)cccc2Cl)nc2cc(C(=O)Nc3cc(N4CCCCC4)ccn3)c(F)cc21` [Example 533, 2-(2,6-Dichlorophenylamino)-6-fluoro-1-methyl-N-(4-(piperidin-1-yl)-pyridin-2-yl)-1H-benzimidazole-5-carboxamide] was 91%; that for `Cn1c(Nc2cc(C(N)=O)ccc2Cl)nc2cc(C(=O)Nc3ccc(Br)cc3)ccc21` [Example 537, N-(4-Bromophenyl)-2-(5-carbamoyl-2-chlorophenylamino)-1-methyl-1H-benzimidazole-5-carboxamide] was 99%.
As for `Cc1ccc(Cl)c(Nc2nc3cc(C(=O)Nc4ccc(Br)cc4)ccc3[nH]2)c1Cl` [Example 322, 2-(2,6-Dichloro-3-methyl-phenylamino)-1H-benzimidazole-5-carboxylic acid (4-bromo-phenyl)-amide], the inhibition at 10 µM was determined as 100%.
Same read-out and setting: the value for `Cc1cccc(Cl)c1Nc1nc2cc(C(=O)Nc3ccccc3)ccc2[nH]1` [Example 12, 2-(2-Chloro-6-methyl-phenylamino)-1H-benzimidazole-5-carboxylic acid-phenylamide] was 99%.
On the same count and under the same terms, the same measure for `Cn1c(Nc2c(Cl)cccc2Cl)nc2cc(C(=O)Nc3cc(Cl)ccn3)cc(Br)c21` [Example 492, 7-Bromo-N-(4-chloropyridin-2-yl)-2-(2,6-dichlorophenylamino)-1-methyl-1H-benzimidazole-5-carboxamide]: 98%; for `Cn1c(Nc2c(Cl)cccc2Cl)nc2cc(C(=O)Nc3cccc(S(C)(=O)=O)c3)ccc21` [Example 248, 2-(2,6-Dichloro-phenylamino)-1-methyl-1H-benzimidazole-5-carboxylic acid (3-methanesulfonyl-phenyl)-amide]: 73%.
Still for that read-out and setting: the same measure for `Cn1c(Nc2cc(S(C)(=O)=O)ccc2Cl)nc2cc(C(=O)Nc3ccc(Br)cc3)ccc21` [Example 526, N-(4-Bromophenyl)-2-(2-chloro-5-(methylsulfonyl)phenylamino)-1-methyl-1H-benzimidazole-5-carboxamide]: 93%.
Consider `O=C(Nc1cccc(F)c1)c1ccc2[nH]c(Nc3c(Cl)cccc3Cl)nc2c1` [Example 285, 2-(2,6-Dichloro-phenylamino)-1H-benzimidazole-5-carboxylic acid (3-fluoro-phenyl)-amide], for which the inhibition at 10 µM was determined as 100%.
For the compound `COc1cc2c(cc1C(=O)NCc1ccccc1C(F)(F)F)nc(Nc1c(Cl)cccc1Cl)n2C` [Example 136, 2-(2,6-Dichloro-phenylamino)-6-methoxy-1-methyl-1H-benzimidazole-5-carboxylic acid 2-trifluoromethyl-benzylamide], the inhibition at 10 µM amounted to 98%.
Still for that read-out and setting: the same measure for `CC(C)CCNC(=O)c1cc2nc(Nc3c(Cl)cccc3Cl)n(C)c2cc1F` [Example 428, 2-(2,6-Dichlorophenylamino)-6-fluoro-N-isopentyl-1-methyl-1H-benzimidazole-5-carboxamide]: 100%.
Same read-out and setting: the same measure for `COc1cc2c(cc1C(=O)NCc1ncccc1OC)nc(Nc1c(Cl)cccc1Cl)n2C` [Example 491, 2-(2,6-Dichlorophenylamino)-6-methoxy-N-((3-methoxypyridin-2-yl)-methyl)-1-methyl-1H-benzimidazole-5-carboxamide]: 99%; for `O=C(NC1COc2ccccc2C1)c1cc2[nH]c(Nc3c(Cl)cccc3Cl)nc2cc1F` (centres unmarked) [Example 152, 2-(2,6-Dichloro-phenylamino)-6-fluoro-1H-benzimidazole-5-carboxylic acid chroman-3-ylamide]: 95%; for `O=C(Nc1cc(Cl)ccn1)c1ccc2c(c1)nc(Nc1c(Cl)cccc1Cl)n2CC1CNC1` [Example 209, 2-(2,6-Dichloro-phenylamino)-(1-azetidin-3-ylmethyl)-1H-benzimidazole-5-carboxylic acid (4-chloro-pyridin-2-yl)-amide (trifluoroacetate)]: 100%.
The same measure, in the same setting: the same measure for `COc1cc2[nH]c(Nc3c(Cl)ccc(Cl)c3F)nc2cc1C(=O)NC1CCCCC1` [Example 612, 2-(3,6-Dichloro-2-fluoro-phenylamino)-N-cyclohexyl-6-methoxy-1H-benzimidazole-5-carboxamide]: 99%.
Turning to `COc1cc2[nH]c(Nc3c(Cl)cc(F)cc3Cl)nc2cc1C(=O)N[C@H]1CC[C@H](C(F)(F)F)CC1` [Example 579, 2-(2,6-Dichloro-4-fluoro-phenylamino)-6-methoxy-N-(trans-4-trifluoromethyl-cyclohex-1-yl)-1H-benzimidazole-5-carboxamide], the inhibition at 10 µM amounted to 100%.
Still for that read-out and setting: the value for `O=C(Nc1ccc(Br)c(F)c1)c1cc2nc(Nc3c(Cl)cccc3Cl)[nH]c2cc1Cl` [Example 54, 2-(2,6-Dichloro-phenylamino)-6-chloro-1H-benzimidazol-5-carboxylic acid (4-bromo-3-fluoro-phenyl)-amide] was 96%; that for `Cn1c(Nc2c(Cl)cccc2Cl)nc2cc(C(=O)NCc3ncccc3C(F)(F)F)ccc21` [Example 244, 2-(2,6-Dichloro-phenylamino)-1-methyl-1H-benzimidazole-5-carboxylic acid (3-trifluoromethyl-pyridin-2-ylmethyl)-amide] was 96%.
On the same count and under the same terms, the same measure for `Cn1c(Nc2c(Cl)cccc2Cl)nc2cc(C(=O)NCc3ccccn3)c(F)cc21` [Example 548, 2-(2,6-Dichlorophenylamino)-6-fluoro-1-methyl-N-(pyridin-2-ylmethyl)-1H-benzimidazole-5-carboxamide]: 93%; for `CO[C@H]1CC[C@H](NC(=O)c2ccc3[nH]c(Nc4c(Cl)cccc4Cl)nc3c2)CC1` [Example 216, 2-(2,6-Dichloro-phenylamino)-1H-benzimidazole-5-carboxylic acid ((1R,4R)-4-methoxy-cyclohexyl)-amide]: 64%.
Still for that read-out and setting: the value for `O=C(N[C@H]1CC[C@H](C(F)(F)F)CC1)c1cc2nc(Nc3c(Cl)cc(F)cc3Cl)[nH]c2cc1OCC(F)(F)F` [Example 583, 2-(2,6-Dichloro-4-fluoro-phenylamino)-N-(trans-4-trifluoromethyl-cyclohex-1-yl)-6-(2,2,2-trifluoroethoxy)-1H-benzimidazole-5-carboxamide] was 95%.
As for `O=C(N[C@H]1CC[C@H](C(F)F)CC1)c1cc2nc(Nc3c(Cl)cccc3Cl)[nH]c2cc1F` [Example 496, 2-(2,6-Dichlorophenylamino)-N-((1r,4r)-4-(difluoromethyl)cyclohexyl)-6-fluoro-1H-benzimidazole-5-carboxamide], the inhibition at 10 µM amounted to 100%.
On the same count and under the same terms, the value for `Cn1c(Nc2c(Cl)cccc2Cl)nc2cc(C(=O)Nc3cc(C(F)(F)F)ccn3)c(F)cc21` [Example 130, 2-(2,6-Dichloro-phenylamino)-6-fluoro-1-methyl-1H-benzimidazole-5-carboxylic acid (4-trifluoromethyl-pyridin-2-yl)-amide] was 93%.
